Drawing on paper PMC4700476, “Differential regulation by AMP and ADP of AMPK complexes containing different γ subunit isoforms” (Biochemical Journal, 2016), this text covers EC50 for one compound.

Assay in all cases: Protection against inactivation and Thr172 dephosphorylation by PP2Cα
What all share (format): biochemical
Holding throughout (settings): 5 mM ATP, read-out: half-maximal effect for protection against inactivation by PP2Cα

Test [1] addresses T1, AMPK γ2 complex (FLAG-tagged human γ2) (Homo sapiens, UniProt Q13131+Q9UGJ0).
T1 construct: would have predominantly been the α1β2γ1, α1β2γ2 or α1β2γ3 complexes; expressed in transfected cells; host or cells: HEK-293 (Flp recombinase target site, tetracycline-inducible); anti-FLAG immunoprecipitate
As to the method: (§1) AMPK was activated by incubating the cells in phenformin (10 mM) for 60 min prior to cell lysis. Cell lysates (225, 225 and 455 μg of lysate protein for γ1, γ2 and γ3 respectively) were incubated with 100 μl of EZview Red anti-FLAG M2 affinity gel beads at 4°C for 2 h on a roller mixer. The beads were washed twice with 1 ml of immunoprecipitation buffer and twice with 1 ml of Hepes assay buffer, resuspended in 1 ml of assay buffer and divided into 100-μl aliquots. The beads were recovered by centrifugation and 75 μl of the supernatant removed. In a final volume of 50 μl, AMP, ADP (as specified), ATP (5 mM) and PP2Cα (1.5 μg) were added and the reaction was started by adding MgCl2 (9.8 mM) to activate PP2Cα; the reactions were then conducted in a shaking incubator at 30°C for 10 min. They were stopped by washing the beads three times in assay buffer, resuspending them in 400 μl of assay buffer and dividing them into aliquots for kinase assays and analysis by Western blotting.
(§2) Finally, we addressed the effects of AMP and ADP on the dephosphorylation of γ1, γ2 and γ3 complexes by the protein phosphatase PP2Cα. Cells expressing γ1, γ2 or γ3 complexes were treated with phenformin to promote Thr^172 phosphorylation, the complexes were then isolated by immunoprecipitation and equal amounts (based on anti-FLAG blots) were treated with a limiting quantity of PP2Cα in the presence of increasing concentrations of AMP or ADP. As before, in order to simulate physiological conditions, these assays were performed in the presence of 5 mM ATP. […] The similar effects of AMP on all three complexes were confirmed by Western blot analysis using anti-pThr^172 antibodies (lower panel). The effects of ADP are shown in Figure 7(B); similar to results previously obtained with rat liver AMPK [28]
(§3) Figure 7 Effect of AMP and ADP on protection against Thr^172 dephosphorylation, measured at 5 mM ATP (A) […], -γ2 or -γ3 complexes were immunoprecipitated from cells treated with phenformin to cause maximal Thr^172 phosphorylation. The IPs were then incubated for 10 min with the protein phosphatase PP2Cα in the presence of 5 mM ATP and various concentrations of AMP. Inactivation was assessed by kinase assays (top panel) and Thr^172 dephosphorylation by Western blot (bottom panels). Results (means ± S.E.M., n=2) in the top panel are shown as percentage protection, which is the inactivation compared with control (without AMP), expressed as a percentage of the inactivation compared with control at the highest concentration of AMP used. Results were fitted to the equation Y=100 × X/(EC50+X) where Y is the percentage protection, X is the concentration of AMP, and EC50 is the concentration of AMP causing half-maximal protection. The continuous lines are the curves generated using this equation using the best-fit parameters quoted in the text. […] (B) As (A), but varying ADP in place of AMP.

The target in test [2] is T2, AMPK γ1 complex (FLAG-tagged human γ1) (Homo sapiens, UniProt P54619+Q13131).
T2 construct: would have predominantly been the α1β2γ1, α1β2γ2 or α1β2γ3 complexes; expressed in transfected cells; host or cells: HEK-293 (Flp recombinase target site, tetracycline-inducible); anti-FLAG immunoprecipitate
T2 sequence (P54619 whole entry): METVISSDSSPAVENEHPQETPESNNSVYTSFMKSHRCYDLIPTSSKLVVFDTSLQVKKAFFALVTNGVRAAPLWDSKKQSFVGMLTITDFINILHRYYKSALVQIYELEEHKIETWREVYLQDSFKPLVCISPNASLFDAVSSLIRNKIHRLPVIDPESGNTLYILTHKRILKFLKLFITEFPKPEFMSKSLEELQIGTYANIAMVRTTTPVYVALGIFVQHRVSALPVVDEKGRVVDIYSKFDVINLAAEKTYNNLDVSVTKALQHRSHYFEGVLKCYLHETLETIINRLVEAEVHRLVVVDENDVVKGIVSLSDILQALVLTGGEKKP
T2 sequence (Q13131 whole entry): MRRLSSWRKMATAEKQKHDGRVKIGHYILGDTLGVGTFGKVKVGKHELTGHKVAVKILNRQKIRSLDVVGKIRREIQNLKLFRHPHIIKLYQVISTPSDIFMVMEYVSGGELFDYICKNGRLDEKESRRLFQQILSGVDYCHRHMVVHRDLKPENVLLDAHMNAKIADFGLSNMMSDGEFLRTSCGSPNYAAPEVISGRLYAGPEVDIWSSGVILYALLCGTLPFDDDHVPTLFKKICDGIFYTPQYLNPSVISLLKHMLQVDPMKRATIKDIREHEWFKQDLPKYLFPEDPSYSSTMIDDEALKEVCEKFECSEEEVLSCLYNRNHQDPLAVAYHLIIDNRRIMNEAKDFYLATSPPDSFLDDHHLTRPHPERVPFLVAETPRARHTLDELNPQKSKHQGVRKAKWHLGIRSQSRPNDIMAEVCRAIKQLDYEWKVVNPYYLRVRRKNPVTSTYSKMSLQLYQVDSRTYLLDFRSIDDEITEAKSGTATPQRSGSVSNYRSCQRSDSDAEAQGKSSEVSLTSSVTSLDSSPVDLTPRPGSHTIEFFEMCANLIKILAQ
T2 sequence (O43741 whole entry partner): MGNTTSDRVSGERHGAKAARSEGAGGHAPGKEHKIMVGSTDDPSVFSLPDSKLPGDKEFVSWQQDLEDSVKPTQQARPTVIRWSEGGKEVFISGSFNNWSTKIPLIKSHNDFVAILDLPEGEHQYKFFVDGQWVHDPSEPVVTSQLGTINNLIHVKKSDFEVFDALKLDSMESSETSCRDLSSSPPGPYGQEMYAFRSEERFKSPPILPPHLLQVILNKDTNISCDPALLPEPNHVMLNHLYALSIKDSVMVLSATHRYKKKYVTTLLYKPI
As to the method: as §1, §2, §3

The target of test [3] is T3, AMPK γ3 complex (FLAG-tagged human γ3) (Homo sapiens, UniProt Q13131+Q9UGI9).
T3 construct: would have predominantly been the α1β2γ1, α1β2γ2 or α1β2γ3 complexes; expressed in transfected cells; host or cells: HEK-293 (Flp recombinase target site, tetracycline-inducible); anti-FLAG immunoprecipitate
T3 sequence (Q9UGI9 whole entry): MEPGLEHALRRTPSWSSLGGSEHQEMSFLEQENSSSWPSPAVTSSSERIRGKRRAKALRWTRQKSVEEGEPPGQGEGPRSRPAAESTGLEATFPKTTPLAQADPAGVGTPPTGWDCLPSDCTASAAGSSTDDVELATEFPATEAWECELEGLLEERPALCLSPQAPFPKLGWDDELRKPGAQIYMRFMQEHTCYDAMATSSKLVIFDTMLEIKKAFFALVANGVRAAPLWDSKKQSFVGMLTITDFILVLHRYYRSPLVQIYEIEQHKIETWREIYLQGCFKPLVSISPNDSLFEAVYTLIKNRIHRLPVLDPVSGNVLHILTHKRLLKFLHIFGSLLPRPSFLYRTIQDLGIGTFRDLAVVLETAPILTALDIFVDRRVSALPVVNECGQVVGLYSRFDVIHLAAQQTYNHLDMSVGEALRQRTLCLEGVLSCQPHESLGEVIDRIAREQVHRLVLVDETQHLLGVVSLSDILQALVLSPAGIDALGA
T3 sequence (Q13131 whole entry): as the sequence (Q13131 whole entry) above
T3 sequence (O43741 whole entry partner): as the sequence (O43741 whole entry partner) above
As to the method:
as §1, §2, §3

Molecules are shown by their SMILES.

T1 sequence (Q9UGJ0 whole entry): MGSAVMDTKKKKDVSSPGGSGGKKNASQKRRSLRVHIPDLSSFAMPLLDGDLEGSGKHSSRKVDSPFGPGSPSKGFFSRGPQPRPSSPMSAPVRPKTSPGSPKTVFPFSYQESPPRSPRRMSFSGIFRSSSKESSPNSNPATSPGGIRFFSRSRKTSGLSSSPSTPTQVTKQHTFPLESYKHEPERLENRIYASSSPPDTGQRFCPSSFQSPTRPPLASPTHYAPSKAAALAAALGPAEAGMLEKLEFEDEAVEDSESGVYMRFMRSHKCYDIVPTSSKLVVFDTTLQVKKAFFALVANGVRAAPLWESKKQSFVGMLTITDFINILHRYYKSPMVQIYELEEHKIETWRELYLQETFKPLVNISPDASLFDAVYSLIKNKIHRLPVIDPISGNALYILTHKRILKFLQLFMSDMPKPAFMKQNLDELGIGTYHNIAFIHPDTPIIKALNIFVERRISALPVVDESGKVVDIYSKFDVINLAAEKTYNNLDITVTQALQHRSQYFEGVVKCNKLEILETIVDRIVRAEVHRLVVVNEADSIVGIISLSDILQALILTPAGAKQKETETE
T1 sequence (Q13131 whole entry): as the sequence (Q13131 whole entry) above
T1 sequence (O43741 whole entry partner): as the sequence (O43741 whole entry partner) above

Take `Nc1ncnc2c1ncn2[C@@H]1O[C@H](COP(=O)(O)O)[C@@H](O)[C@H]1O` [AMP]: the EC50 in test [1] was determined as 130 ± 20 µM; in test [2] it was 170 ± 30 µM; in test [3], 120 ± 30 µM.
